Results from patent US11459586B2, “Methods for increasing efficiency of nuclease-mediated gene editing in stem cells” (President and Fellows of Harvard College, priority 2016, dated 2022).
Peptide text beside a SMILES is read from it. * marks the point of attachment. Cbz = O=C(OCc1ccccc1)*; CH2F = FC*

Key:
human iPSC = assay type: cell-based
Description: FIGS. 10A-F. Effect of Caspase and p38 MAPK inhibitors on survival and gene targeting of human iPSC. FIG. 10A and FIG. 10B. Mouse Thy1 gene targeting scheme. Human iPSC were nucleofected with the mThy1 targeting vector, Cas9 nuclease, and Thy1 sgRNA expressing plasmid or pUC19 empty vector. Nucleofected cells were evenly divided and plated onto plain media (mTeSR1+10 μM Y-27632 ROCK inhibitor), or media supplemented with the indicated chemical inhibitor. For specific caspase inhibitors, the principal caspase they target is noted in parentheses. […] FIG. 10C. Two days after nucleofection, viable cells were counted. Error bars indicate s.e.m. of technical duplicates. Lines mark the count levels for nucleofected cells in plain media with or without sgRNA. FIG. 10D. Five days after transfection, cells were analyzed by flow cytometry for mThy1 and hThy1 expression. The percent of mThy1^+hThy1^− (bottom of each bar) and mThy1^+hThy1^+ (top of each bar) cells of live single cells is indicated. Lines mark the levels for cells in plain media. […] FIG. 10E. FACS plots of human iPSC transfected with the mThy1 targeting vector, Cas9 nuclease, and Thy1 Left and Right sgRNAs. Cells were subsequently cultured for 5 days in plain media±50 μM zVAD and ±10 μM SB203580. FIG. 10F. Human iPSC cultures were single cell FACS sorted into 96-well tissue culture plates containing a MEF feeder layer and hES media supplemented with SMC4 inhibitors±50 μM zVAD for eight days. Ten days after sorting, the number of surviving iPSC colonies was counted (from 190 cells sorted). PGP1 hiPSC lines created using retroviral vectors or non-integrating methods were both tested.
Pluripotency of iPSC cultures was verified by flow cytometry staining using anti-human Tra-1/60 PE (TRA-1-60, BD) and anti-human Oct3/4 eFluor 660 (EM92, eBioscience) with the fixation buffer sold under the trademark BD CYTOFIX™ and permeabilization buffer sold under the trademark PHOSFLOW™ Perm/Wash buffers. Human g-band karyotype analysis was done by Cell Line Genetics. Viable cell counts were measured with the cell analyzer sold under the trademark MUSE® Count & Viability Assay kit (EMD Millipore). Anti-human HLA-A2 APC (BB7.2) and anti-human HLA-BC PE (B1.23.2) were purchased from eBioscience. Human iPSC cultures were treated with 50 ng/ml recombinant interferon gamma (eBioscience) for 2 days prior to HLA staining.
Plasmids were purified using the plasmid DNA purification kit sold under the trademark Qiagen ENDOFREE® Plasmid Maxi kit and nucleofected into iPSC cells using the Lonza 4D-Nucleofector X unit (Buffer P3, Program CB-150). For each 20 μl nucleofection reaction, 0.2-0.5×106 iPSC were transfected with up to 4 μg of plasmid DNA. Post-nucleofection, iPSC were plated onto solubilized basement membrane matrix secreted by Engelbreth-Holm-Swarm (EHS) mouse sarcoma cells sold under the trademark […]®-coated wells containing feeder-free cell culture medium sold under the trademark MTESR1™ media with 10 μM Y-27632 plus other chemical inhibitors when noted. Later experiments included 50 μM zVAD-fmk (Bachem) for 1 day and 10 μM SB203580 (Biovision) for 4-5 days post transfection (see FIGS. 5, 6, 11, and 12). For FIG. 6 (ssODN transfection), 200 ng/ml recombinant B 18R (eBioscience), was also added to the culture for 5 days post transfection.
The following inhibitors were added to the hiPSC culture at the concentrations and time periods indicated in the Examples below. • 1. p53 or Bax inhibitors: cyclic pifithrin α (StemCell Technologies); pifithrin (Tocris); peptide V5, peptide control, iMAC1 and iMAC2 (EMD Millipore); N-acetyl cysteine and 4-hydroxy TEMPO (TEMPOL) (Sigma). • 2.

[1] = system: human iPSC containing a doxycycline-inducible Cas9 nuclease; assay: Cas9 nuclease toxicity in doxycycline-inducible Cas9 hiPSC (decline of CFP+EGFP+ cells); assay type: cell-based; conditions: zVAD added
Text: FIGS. 1A-C. Cas9 nuclease toxicity in human iPSC only occurs with sgRNAs that target the human genome. FIG. 1A. A human iPSC line containing a doxycycline-inducible Cas9 nuclease was infected with lentivirus that constitutively expresses CFP together with an sgRNA. Three days after infection, each culture was divided into several wells and treated with the indicated concentrations of doxycycline for up to 14 days. FIG. 1B. At the indicated time points, the percent of CFP^+ of live single cells was determined by flow cytometry. […] FIG. 1C. 14 days after doxycycline induction, iPSC infected with the Thy1 sgRNA were stained for expression of the Thy1 surface marker and analyzed by flow cytometry. The percent of Thy1-negative edited cells gated on the CFP^+ infected cells is shown for varying concentrations of doxycycline. Results are representative of three independent experiments.
FIGS. 2A-B. Nuclease-mediated toxicity in human iPSC can be rescued by overexpression of dominant negative p53 or anti-apoptotic Bcl-2 family members. FIG. 2A. […] At the indicated time points, the percent of CFP EGFP^+ iPSC was determined by flow cytometry. […]
FIG. 13. […] At the indicated time points, the percent of CFP^+EGFP^+ iPSC was determined by flow cytometry. […]

CC(NC(=O)C(NC(=O)OCc1ccccc1)C(C)C)C(=O)NC(CC(=O)O)C(=O)CF (stereo not drawn) [zVAD] (Cbz-Val-Ala-Asp-CH2F; configuration not given here)
anoikis rescue (human iPSC; lower concentration, 25 μM): did not show as much anoikis rescue
rescue of hiPSC from cell death (anoikis) after nucleofection (human iPSC; viable cells two days after nucleofection, sgRNA plasmid or pUC19 control): rescued cells transfected with an sgRNA, and also those transfected with the pUC19 control
doxycycline-induced Cas9 nuclease toxicity [1]: did not affect
